From patent publication US4425355A, “Substituted acyl derivatives of chair form of octahydro-1H-indole-2-carboxylic acids” (Warner-Lambert Company, priority 1981, dated 1984)
Where a name gives a salt, the structure may show the parent alone.

Each molecule was assayed against T1, Angiotensin converting enzyme (ACE) (Cavia porcellus, UniProt H0UWL7) (assay: In vitro ACE Assay: angiotensin converting enzyme inhibitory activity (guinea pig serum ACE, 3H-hippuryl-glycyl-glycine substrate)). Settings: 10 min preincubation, 60 minute incubation at 37° C., read-out: IC50 (Activity of Compounds of Formula V).
T1 construct: ACE from guinea pig serum and the test compounds are preincubated for 10 minutes; from tissue; host or cells: guinea pig serum
T1 sequence (H0UWL7 33-1302): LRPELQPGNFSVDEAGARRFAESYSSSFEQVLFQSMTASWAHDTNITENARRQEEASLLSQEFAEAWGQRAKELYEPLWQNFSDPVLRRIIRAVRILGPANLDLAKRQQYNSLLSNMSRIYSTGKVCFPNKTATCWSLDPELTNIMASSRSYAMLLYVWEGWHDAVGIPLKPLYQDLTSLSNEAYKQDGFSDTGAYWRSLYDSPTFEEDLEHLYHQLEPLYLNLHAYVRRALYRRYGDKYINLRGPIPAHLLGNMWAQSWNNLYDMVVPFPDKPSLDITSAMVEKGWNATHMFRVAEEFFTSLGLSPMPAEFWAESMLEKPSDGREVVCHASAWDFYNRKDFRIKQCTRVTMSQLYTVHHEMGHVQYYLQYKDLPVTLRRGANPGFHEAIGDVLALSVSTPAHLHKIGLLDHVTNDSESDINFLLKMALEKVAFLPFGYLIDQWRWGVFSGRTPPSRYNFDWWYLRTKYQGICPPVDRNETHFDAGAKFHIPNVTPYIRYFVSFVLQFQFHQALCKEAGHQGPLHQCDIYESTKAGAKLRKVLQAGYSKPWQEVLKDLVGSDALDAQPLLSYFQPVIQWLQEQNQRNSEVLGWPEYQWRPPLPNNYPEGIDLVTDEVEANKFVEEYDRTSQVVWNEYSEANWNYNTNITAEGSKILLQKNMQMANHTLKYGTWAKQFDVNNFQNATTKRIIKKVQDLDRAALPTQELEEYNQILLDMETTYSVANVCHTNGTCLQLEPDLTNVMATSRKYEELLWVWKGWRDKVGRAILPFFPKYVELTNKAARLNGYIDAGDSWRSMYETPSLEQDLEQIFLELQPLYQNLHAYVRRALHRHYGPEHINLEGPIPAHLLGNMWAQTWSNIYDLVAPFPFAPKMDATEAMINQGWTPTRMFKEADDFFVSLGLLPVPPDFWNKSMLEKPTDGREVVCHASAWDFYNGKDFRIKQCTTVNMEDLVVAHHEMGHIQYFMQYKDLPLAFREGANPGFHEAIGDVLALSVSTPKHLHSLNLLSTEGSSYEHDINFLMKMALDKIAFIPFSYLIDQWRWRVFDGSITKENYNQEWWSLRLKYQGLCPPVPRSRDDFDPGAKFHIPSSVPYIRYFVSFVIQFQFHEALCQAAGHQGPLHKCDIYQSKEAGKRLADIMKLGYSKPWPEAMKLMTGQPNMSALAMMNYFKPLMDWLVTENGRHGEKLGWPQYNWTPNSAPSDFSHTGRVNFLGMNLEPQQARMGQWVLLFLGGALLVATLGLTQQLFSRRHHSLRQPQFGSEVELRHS
Format: biochemical
Procedure: In vitro ACE Assay: Angiotensin converting enzyme (ACE) inhibitory activity is determined by assaying guinea pig serum ACE in the presence and absence of the test compound. ACE from guinea pig serum and the test compounds are preincubated for 10 minutes before the addition of the labelled substrate ^3 H-hippuryl-glycyl-glycine. […] ACE cleaves the hippuryl-glycyl bond to form the dipeptide glycyl-glycine and ^3 H-hippuric acid. The ^3 H-hippuric acid is then extracted with ethyl acetate and the ACE inhibition of a given sample calculated on the basis of the ^3 H-hippuric acid generated.

Compared with `CCOC(=O)[C@@H]1C[C@@H]2CCCC[C@@H]2N1C(=O)C(C)CSC(C)=O` (relative stereo) [V: R=C2 H5, R1=CH3, R2=CH3 CO, --, Ethyl (2α,3aβ,7aβ)-Octahydro-1-[3-(acetylthio)-2-methylpropanoyl]-1H-indole-2-carboxylate], `CC(=O)SCC(C)C(=O)N1[C@H](C(=O)O)C[C@@H]2CCCC[C@@H]21` (single isomer, unassigned; diastereomer a) [V: R=H, R1=CH3, R2=CH3 CO, A, (2α,3aβ,7aβ)-Octahydro-1-[3-(acetylthio)-2-methyl-propanoyl]-1H-indole-2-carboxylic Acid, Diastereomer A] is 42-fold lower in IC50: 6700 nM for the first, 160 nM for the second.

First: CC(CS)C(=O)N1[C@H](C(=O)O)C[C@@H]2CCCC[C@@H]21 (relative stereo) [V: R=H, R1=CH3, R2=H, --, (2α,3aβ,7aβ)-Octahydro-1-(3-mercapto-2-methylpropanoyl)-1H-indole-2-carboxylic acid]
Second: CC(=O)SCC(C)C(=O)N1[C@H](C(=O)O)C[C@@H]2CCCC[C@@H]21 (single isomer, unassigned; diastereomer b) [V: R=H, R1=CH3, R2=CH3 CO, dl, B, (2α,3aβ,7aβ)-Octahydro-1-[3-(acetylthio)-2-methylpropanoyl]-1H-indole-2-carboxylic Acid, Diastereomer B.]
The IC50 of the first is 69-fold lower: 16 nM for the first, 1100 nM for the second.

First: CC(=O)SCCC(=O)N1[C@H](C(=O)O)C[C@@H]2CCCC[C@@H]21 (relative stereo) [V: R=H, R1=H, R2=CH3 CO, l, (1)-(2α,3aβ,7aβ)-Octahydro-1-[3-(acetylthio)-propanoyl]-1H-indole-2-carboxylic Acid]
Second: O=C(O)[C@@H]1C[C@@H]2CCCC[C@@H]2N1C(=O)CCS (relative stereo) [V: R=H, R1=H, R2=H, l, (1)-(2α,3aβ,7aβ)-Octahydro-1-(3-mercaptopropanoyl)-1H-indole-2-carboxylic Acid]
The IC50 of the first is 75-fold higher: 480 nM for the first, 6.4 nM for the second.

Going from `CC(CSC(=O)C(C)(C)C)C(=O)N1[C@H](C(=O)O)C[C@@H]2CCCC[C@@H]21` (single isomer, unassigned) [V: R=H, R1=CH3, R2=(CH3)3 CCO, dl, A, (2α,3aβ,7aβ)-Octahydro-1-[3-(2,2-dimethylpropanoylthio)-2-methylpropanoyl]-1H-indole-2-carboxylic Acid] to `CCC(=O)SCC(C)C(=O)N1[C@H](C(=O)O)C[C@@H]2CCCC[C@@H]21` (single isomer, unassigned; diastereomer a) [V: R=H, R1=CH3, R2=CH3 CH2 CO, dl, A, (2α,3aβ,7aβ)-Octahydro-1-[3-(propanoylthio)-2-methylpropanoyl]-1H-indole-2-carboxylic Acid, (Diastereomer A)], the IC50 falls from 170 nM to 52 nM (3.3-fold).

Compared with `CC(CS)C(=O)N1[C@H](C(=O)O)C[C@@H]2CCCC[C@@H]21` (single isomer, unassigned; diastereomer a) [V: R=H, R1=CH3, R2=H, dl, A, (2α,3aβ,7aβ)-Octahydro-1-(3-mercapto-2-methylpropanoyl)-1H-indole-2-carboxylic Acid, Diastereomer A], `CC(CSC(=O)c1ccccc1)C(=O)N1[C@H](C(=O)O)C[C@@H]2CCCC[C@@H]21` (single isomer, unassigned; diastereomer a) [V: R=H, R1=CH3, R2=PhCO, dl, A, (2α,3aβ,7aβ)-Octahydro-1-[3-(benzoylthio)-2-methylpropaoyl]-1H-indole-2-carboxylic Acid (Diastereomer A) t-Butylamine Salt] is 140-fold higher in IC50: 7 nM for the first, 960 nM for the second. The first is the more potent here.
